What was measured:
[1] = system: HLA-DR on monocytes; test: Surface expression of HLA-DR on primed monocytes, flow cytometry; type: cell-based, human; conditions: polypeptide 10 μg/ml, 48 hours of incubation (FIG. 4)
Protocol: (§1) (A) Monocytes were incubated with rsTLT-1 (10 μg/mL) for 3 days. At the indicated time point, the cells were harvested and the HLA-DR and PD-L1 molecules were analyzed using flow cytometry. […] (B) Monocytes were cultured with different concentrations of rsTLT-1 for 2 days. The cells were then harvested and the HLA-DR and PD-L1 molecules were analyzed using flow cytometry. Surface molecule expression is presented as the mean fluorescence intensity (MFI) relative to each day that the cells were treated with the control medium (dashed line). Values are presented as mean±SEM from 3 independent experiments.
Monocytes were cultured with 10 μg/ml TLT-1 15-63 polypeptide and 10 μg/ml rsTLT-1 for 2 days. The cells were then harvested and the HLA-DR molecules were analyzed using flow cytometry. Surface molecule expression is presented as the MFI relative to each day that the cells were treated with the medium control (dashed line).
(§2) White blood cell concentrates from healthy volunteers were obtained from the Taiwan Blood Service Foundation (Taipei, Taiwan). Written informed consent was obtained for participation in the study, which was approved by the Institutional Review Board of the MacKay Memorial Hospital. Human monocytes were isolated as previously described. In brief, peripheral blood mononuclear cells (PBMCs) were isolated using Ficoll-Paque Plus (GE Healthcare) gradient centrifugation. […]

[2] = system: PD-L1 on monocytes; test: Surface expression of PD-L1 on primed monocytes, flow cytometry; type: cell-based, human; conditions: polypeptide 10 μg/mL, 24 hours, MFI relative to medium control (FIG. 3B)
Protocol: as §1
(A) depicts structural characteristics of extracellular domain of TLT-1 and designed TLT-1 polypeptides. […] The cells were then harvested and the PD-L1 molecules were analyzed using flow cytometry. Surface molecule expression is presented as the MFI relative to each day that the cells were treated with the medium control (dashed line).
as §2, with “described.” for “described. In brief, peripheral blood mononuclear cells (PBMCs) were isolated using Ficoll-Paque Plus (GE Healthcare) gradient centrifugation.”

Row | Substance | HLA-DR surface expression on monocytes [1] | PD-L1 surface expression on monocytes [2]
1 | TLT-1 15-63: GQGIVGSLPEVLQAPVGSSILVQCHYRLQDVKAQKVWCRFLPEGCQPLV (SEQ ID NO: 7; same sequence as SEQ ID NO: 2) (Polypeptide name TLT-1 15-63) | decreased | significantly increased
2 | TLT-1 34-63: ILVQCHYRLQDVKAQKVWCRFLPEGCQPLV (SEQ ID NO: 9; same sequence as SEQ ID NO: 1) (Polypeptide name TLT-1 34-63) | – | induced PD-L1 expression

Source: US20180141991A1, “METHODS AND POLYPEPTIDES FOR MODULATION OF IMMUNORESPONSE” (Mackay Medical Foundation The Presbyterian Church In Taiwan …, priority 2015, published 2018)
